Patent publication US12264173B2 (GILEAD SCIENCES, INC., priority 2020, dated 2025)
Read-outs that look alike come from different tables or passages of the source.

How the values were obtained:
Type in all cases: cell-based
RSV strain A2 = experiment: microbe, parasite or virus in culture; conditions: read-out: RSV HEp-2 EC50
Procedure: Antiviral activity against RSV is determined using an infectious cytopathic cell protection assay in HEp-2 cells. In this assay, compounds inhibiting viral infection and/or replication produce a cytoprotective effect against the virus-induced cell killing that can be quantified using a cell viability reagent. The techniques used here are novel adaptations of methods described in published literature (Chapman et al., Antimicrob Agents Chemother. 2007, 51(9):3346-53.).
HEp-2 cells are obtained from ATCC (Manassas, VI) and maintained in MEM media supplemented with 10% fetal bovine serum and penicillin/streptomycin. Cells are passaged twice a week and kept at subconfluent stage. Commercial stock of RSV strain A2 (Advanced Biotechnologies, Columbia, MD) is titered before compound testing to determine the appropriate dilution of the virus stock that generates desirable cytopathic effect in HEp-2 cells.
For antiviral tests, HEp-2 cells are grown in large cell culture flasks to near confluency but not fully so. The compounds to be tested are prediluted in DMSO in 384-well compound dilution plates, either in an 8 or 40 sample per plate standardized dose response format. 3-fold serial dilution increments of each test compound are prepared in the plates and test samples are transferred via acoustic transfer apparatus (Echo, Labcyte) at 100 nL per well into cell culture assay 384-well plates. Each compound dilution is transferred in single or quadruplicate samples into dry assay plates, which are stored until assay is ready to go. The positive and negative controls are laid out in opposite on ends of the plate in vertical blocks (1 column).
Subsequently, an infectious mixture is prepared using an appropriate dilution of virus stock previously determined by titration with cells at a density of 50,000/mL and 20 µL/well is added to test plates w/compounds via automation (uFlow, Biotek). Each plate includes negative and positive controls (16 replicates each) to create 0% and 100% virus inhibition standards, respectively. Following the infection with RSV, testing plates are incubated for 4 days in a 37° C. cell culture incubator. After the incubation, a cell viability reagent, Cell TiterGlo (Promega, Madison, WI) is added to the assay plates, which are incubated briefly, and a luminescent readout is measured (Envision, Perkin Elmer) in all the assay plates. The RSV-induced cytopathic effect, percentage inhibition, is determined from the levels of remaining cell viability. […] Various potent anti-RSV tool compounds are used as positive controls for antiviral activity.

RSV A2 = experiment: RSV NHBE EC50 (RSV A2 antiviral assay in NHBE cells); conditions: read-out: RSV NHBE EC50
Procedure: Normal human bronchial epithelial (NHBE) cells were purchased from Lonza (Walkersville, MD, Cat #CC-2540) and cultured in Bronchial Epithelial Growth Media (BEGM) (Lonza, Walkersville, MD, Cat #CC-3170). The cells were passaged 1-2 times per week to maintain <80% confluency. The NHBE cells were discarded after 6 passages in culture.
To conduct the RSV A2 antiviral assay, NHBE cells were plated in 96-well plates at a density of 7,500 cells per well in BEGM and allowed to attach overnight at 37° C. Following attachment, 100 μL of cell culture media was removed and 3-fold serially diluted compound was added using a Hewlett-Packard D300 Digital Dispenser. The final concentration of DMSO was normalized to 0.05%. Following compound addition, the NHBE cells were infected by the addition of 100 μL of RSV A2 at a titer of 1×10^4.5 tissue culture infectious doses/mL in BEGM and then incubated at 37° C. for 4 days. The NHBE cells were then allowed to equilibrate to 25° C. and cell viability was determined by removing 100 μL of culture medium and adding 100 μL of Cell-Titer Glo viability reagent. The mixtures were incubated for 10 minutes at 25° C., and the luminescence signal was quantified on an Envision luminescence plate reader.

HRV16 = HRV16 HeLa EC50 (cytopathic effect in H1-HeLa cells)
Procedure: H1-HeLa cells, cultured in complete DMEM medium containing 10% heat-inactivated FBS and 1% Penicillin/Streptomycin, were seeded in 96 well plates at 3000 cells/well one day prior to compound dosing and infection. The antiviral activity of each compound was measured in triplicate. Compounds were added directly to the cell cultures in serial 3-fold dilutions using the HP300 digital dispenser (Hewlett Packard, Palo Alto, CA) immediately prior to infection. The plates were transferred to BSL-2 containment and the appropriate dilution of virus stock, previously determined by titration and prepared in cell culture media, was added to test plates containing cells and serially diluted compounds. Each plate included 6 wells of infected untreated cells and 6 wells of uninfected cells that served as 0% and 100% virus inhibition control, respectively. Following the infection, test plates were incubated for 96 h in a tissue culture incubator set to 33° C./5% CO2. Following incubation, the H1-HeLa cells were removed from incubation and allowed to equilibrate to 25° C. Cell viability was determined by removing 100 μL of culture medium and adding 100 μL of Cell-Titer Glo viability reagent. The mixtures were incubated on a shaker for 10 minutes at 25° C., and the luminescence signal was quantified on an Envision luminescence plate reader.

[1] = Table 3, HEp-2 cells, RSV A2, 4 days
[2] = Table 3, NHBE cells, RSV A2, 4 days
[3] = Table 3, H1-HeLa cells, 96 h, read-out: HRV16 HeLa EC50
[4] = human respiratory syncytial virus, HEp-2, 96 h, Table 3, HEp-2 cells, RSV A2, 4 days
[5] = human respiratory syncytial virus, NHBE, 96 h, Table 3, NHBE cells, RSV A2, 4 days
[6] = 96 h, Table 3, H1-HeLa cells, 96 h, read-out: HRV16 HeLa EC50
[7] = human respiratory syncytial virus, HEp-2, Table 5 comparative activity, 2',3'-OH vs -OC(O)iPr
[8] = human respiratory syncytial virus, NHBE, Table 5 comparative activity, 2',3'-OH vs -OC(O)iPr
[9] = HeLa, Table 5 comparative activity, 2',3'-OH vs -OC(O)iPr, read-out: HRV16 HeLa EC50

Structure (SMILES)	EC50 (RSV strain A2; [1])	EC50 (RSV A2; [2])	EC50 (HRV16; [3])	EC50 (RSV strain A2; [4])	EC50 (RSV A2; [5])	EC50 (HRV16; [6])	EC50 (RSV strain A2; [7])	EC50 (RSV A2; [8])	further results
CC(C)C(=O)OC1C(c2ccc3c(N)ncnn23)OC(C#N)(COP(=O)(NC(C)C(=O)OC2CCN(C)C2)Oc2ccccc2)C1OC(=O)C(C)C (single isomer, unassigned) [Example 229]	16 nM	23 nM	676 nM						
CC(C)C(=O)OC1C(c2ccc3c(N)ncnn23)OC(C#N)(COP(=O)(NC(C)C(=O)OC2CCN(C)C2)Oc2ccccc2)C1OC(=O)C(C)C (single isomer, unassigned) [Example 230]	102 nM	47 nM	864 nM						
CC(C)C(=O)O[C@H]1[C@H](c2ccc3c(N)ncnn23)O[C@](C#N)(COP(=O)(N[C@@H](C)C(=O)O[C@H]2CCOC2)Oc2ccccc2)[C@H]1OC(=O)C(C)C (single isomer, unassigned) [Example 240]				20 nM	24 nM	125 nM			
CC(C)C(=O)O[C@H]1[C@H](c2ccc3c(N)ncnn23)O[C@](C#N)(COP(=O)(N[C@@H](C)C(=O)O[C@H]2CCOC2)Oc2ccccc2)[C@H]1OC(=O)C(C)C (single isomer, unassigned) [Example 241]	25 nM	13 nM	131 nM						
C[C@H](NP(=O)(OC[C@@]1(C#N)O[C@@H](c2ccc3c(N)ncnn23)[C@H](O)[C@@H]1O)Oc1ccccc1)C(=O)O[C@H]1CCN(C)C1 (stereo partly drawn) [Example 15, (S)-1-methylpyrrolidin-3-yl ((((2R,3S,4R,5S)-5-(4-aminopyrrolo[2,1-f][1,2,4]triazin-7-yl)-2-cyano-3,4-dihydroxytetrahydrofuran-2-yl)methoxy)(phenoxy)phosphoryl)-L-alaninate]							4330 nM	3260 nM	EC50 (HRV16; [9]): 11400 nM
C[C@H](NP(=O)(OC[C@@]1(C#N)O[C@@H](c2ccc3c(N)ncnn23)[C@H](O)[C@@H]1O)Oc1ccccc1)C(=O)OC1CCN(C)CC1 (some centres unmarked) [Example 19]							4180 nM	> 5000 nM	EC50 (HRV16; HeLa, read-out: HRV16 HeLa EC50, Table 5 comparative activity, 2',3'-OH vs -OC(O)iPr): ≥ 50000 nM
C[C@H](NP(=O)(OC[C@@]1(C#N)O[C@@H](c2ccc3c(N)ncnn23)[C@H](O)[C@@H]1O)Oc1ccccc1)C(=O)OC1COC1 (stereo partly drawn) [Example 44, oxetan-3-yl ((((2R,3S,4R,5S)-5-(4-aminopyrrolo[2,1-f][1,2,4]triazin-7-yl)-2-cyano-3,4-dihydroxytetrahydrofuran-2-yl)methoxy)(phenoxy)phosphoryl)-L-alaninate]							997 nM	1800 nM	EC50 (HRV16; [9]): 4260 nM
CC(C)C(=O)O[C@H]1[C@H](c2ccc3c(N)ncnn23)O[C@](C#N)(COP(=O)(N[C@@H](C)C(=O)OC2CCN(C)CC2)Oc2ccccc2)[C@H]1OC(=O)C(C)C (stereo partly drawn) [Example 162, (2R,3S,4S,5S)-5-(4-aminopyrrolo[2,1-f][1,2,4]triazin-7-yl)-2-cyano-2-((((((S)-1-((1-methylpiperidin-4-yl)oxy)-1-oxopropan-2-yl)amino)(phenoxy)phosphoryl)oxy)methyl)tetrahydrofuran-3,4-diyl bis(2-methylpropanoate)]				179 nM	28 nM	1620 nM	179 nM	28 nM	EC50 (HRV16; [9]): 1620 nM
COC(=O)[C@H](C)N[P@](=O)(OC[C@@]1(C#N)O[C@@H](c2ccc3c(NC(=O)C4CCN(C)CC4)ncnn23)[C@H](OC(=O)C2CCN(C)CC2)[C@@H]1OC(=O)C1CCN(C)CC1)Oc1ccccc1 [Example 220, (2R,3S,4S,5S)-2-cyano-2-((((S)-(((S)-1-methoxy-1-oxopropan-2-yl)amino)(phenoxy)phosphoryl)oxy)methyl)-5-(4-(1-methylpiperidine-4-carboxamido)pyrrolo[2,1-f][1,2,4]triazin-7-yl)tetrahydrofuran-3,4-diyl bis(1-methylpiperidine-4-carboxylate)]				167 nM	4860 nM	13500 nM			
CC(C)[C@H](N)C(=O)O[C@H]1[C@H](c2ccc3c(N)ncnn23)O[C@](C#N)(COP(=O)(N[C@@H](C)C(=O)OC2CCOCC2)Oc2ccccc2)[C@H]1OC(=O)[C@@H](N)C(C)C (stereo partly drawn) [Example 221, (2R,3S,4S,5S)-5-(4-aminopyrrolo[2,1-f][1,2,4]triazin-7-yl)-2-cyano-2-((((((S)-1-oxo-1-((tetrahydro-2H-pyran-4-yl)oxy)propan-2-yl)amino)(phenoxy)phosphoryl)oxy)methyl)tetrahydrofuran-3,4-diyl (2S,2'S)-bis(2-amino-3-methylbutanoate)]	660 nM	1170 nM	8990 nM						
COCCCOC(=O)[C@H](C)NP(=O)(OC[C@@]1(C#N)O[C@@H](c2ccc3c(N)ncnn23)[C@H](OC(=O)C(C)C)[C@@H]1OC(=O)C(C)C)Oc1ccccc1 (stereo partly drawn) [Example 222, (2R,3S,4S,5S)-5-(4-Aminopyrrolo[2,1-f][1,2,4]triazin-7-yl)-2-cyano-2-((((((S)-1-(3-methoxypropoxy)-1-oxopropan-2-yl)amino)(phenoxy)phosphoryl)oxy)methyl) tetrahydrofuran-3,4-diyl bis(2-methylpropanoate)]				27 nM	25 nM	146 nM			
CC(C)C(=O)O[C@H]1[C@H](c2ccc3c(N)ncnn23)O[C@](C#N)(COP(=O)(N[C@@H](C)C(=O)OCCN(C(C)C)C(C)C)Oc2ccccc2)[C@H]1OC(=O)C(C)C (stereo partly drawn) [Example 224, (2R,3S,4S,5S)-5-(4-aminopyrrolo[2,1-f][1,2,4]triazin-7-yl)-2-cyano-2-((((((S)-1-(2-(diisopropylamino)ethoxy)-1-oxopropan-2-yl)amino)(phenoxy)phosphoryl)oxy)methyl)tetrahydrofuran-3,4-diyl bis(2-methylpropanoate)]				378 nM	986 nM	1700 nM			
COC(=O)[C@H](C)NP(=O)(OC[C@@]1(C#N)O[C@@H](c2ccc3c(N)ncnn23)[C@H](OC(=O)C(C)C)[C@@H]1OC(=O)C(C)C)Oc1ccc(C[C@H](N)C(=O)OC(C)C)cc1 (stereo partly drawn) [Example 251, (2R,3S,4S,5S)-2-((((4-((S)-2-amino-3-isopropoxy-3-oxopropyl)phenoxy)(((S)-1-methoxy-1-oxopropan-2-yl)amino)phosphoryl)oxy)methyl)-5-(4-aminopyrrolo[2,1-f][1,2,4]triazin-7-yl)-2-cyanotetrahydrofuran-3,4-diyl bis(2-methylpropanoate)]				186 nM	37 nM				
